Target: T1, indoleamine 2,3-dioxygenase (IDO) (Homo sapiens, UniProt P14902)
T1 construct: host or cells: HeLa cells stimulated with IFNγ (25 ng/mL)
Assay: HeLa cell-based indoleamine 2,3-dioxygenase (IDO) assay (kynurenine production)
Conditions: HeLa cells, IFNγ 25 ng/mL, 48 hour incubation, absorbance at 480 nm
Method: Assessment of inhibitor activity in HeLa cell-based indoleamine 2,3-dioxygenase (IDO) assay:
HeLa (ATCC® CCL-2) cells were obtained from the ATCC® and cultured in Dulbecco's Modified Eagle Medium supplemented with 4.5 g/L glucose, […] (#10-013-CV, Corning), 2 mM L-alanyl-L-glutamine dipeptide (#35050-061, Gibco), 100U/mL penicillin, 100 μg/mL streptomycin (#SV30010, HyClone) and 10% fetal bovine serum (#SH30071.03 HyClone). Cells were maintained in a humidified incubator at 37° C. in 5% CO2.
IDO activity was assessed as a function of kynurenine production as follows: HeLa cells were seeded in a 96-well culture plate at a density of 5,000 cells/well and allowed to equilibrate overnight. After 24 hours, the media was aspirated and replaced with media containing IFNγ (#285-IF/CF, R&D Systems) at a final concentration of 25 ng/mL. A serial dilution of each test compound was added to the cells in a total volume of 200 μL of culture medium. After a further 48 hour incubation, 170 μL of supernatant was transferred from each well to a fresh 96-well plate. 12.1 μL of 6.1N trichloroacetic acid (#T0699, Sigma-Aldrich) was added to each well and mixed, followed by incubation at 65° C. for 20 minutes to hydrolyze N-formylkynurenine, the product of indoleamine 2,3-dioxygenase, to kynurenine. The reaction mixture was then centrifuged for 10 mins at 500×g to sediment the precipitate. 100 μL of the supernatant was transferred from each well to afresh 96-well plate. 100 μl of 2% (w/v) p-dimethylaminobenzaldehyde (#15647-7, Sigma-Aldrich) in acetic acid (#A6283, Sigma-Aldrich) was added to each well mixed and incubated at room temperature for 20 mins. Kynurenine concentrations were determined by measuring absorbance at 480 nm and calibrating against an L-kynurenine (#K8625, Sigma-Aldrich) standard curve using a SPECTRAMAX® M2e microplate reader (Molecular Devices). The percentage activity at each inhibitor concentration was determined and IC50 values assessed using nonlinear regression.

T1 sequence (P14902 whole entry): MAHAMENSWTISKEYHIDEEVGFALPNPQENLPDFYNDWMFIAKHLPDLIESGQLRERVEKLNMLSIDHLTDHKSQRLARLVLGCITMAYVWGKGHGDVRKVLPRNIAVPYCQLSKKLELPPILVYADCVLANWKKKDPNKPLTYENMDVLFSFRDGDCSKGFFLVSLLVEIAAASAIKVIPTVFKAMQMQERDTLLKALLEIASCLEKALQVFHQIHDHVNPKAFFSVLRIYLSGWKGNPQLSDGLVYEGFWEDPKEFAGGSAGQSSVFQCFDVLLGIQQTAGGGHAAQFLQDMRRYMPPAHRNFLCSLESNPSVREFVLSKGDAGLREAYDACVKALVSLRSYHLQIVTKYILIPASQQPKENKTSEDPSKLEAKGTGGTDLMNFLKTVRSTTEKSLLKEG

| Structure (SMILES) | IC50 [nM] |
| --- | --- |
| CC[C@H](c1nc2ncc(Cl)cc2[nH]1)[C@H]1CC[C@@H](c2ccnc3ccc(F)cc32)CC1 (single isomer, unassigned) [Example 21-3, 4-(4-(1-(6-chloro-1H-imidazo[4,5-b]pyridin-2-yl)propyl)cyclohexyl)-6-fluoroquinoline] | 5.1 |
| C[C@@H](c1nc2cc(C(F)(F)F)cc(C(F)(F)F)c2[nH]1)[C@H]1CC[C@@H](c2ccnc3ccc(F)cc32)CC1 [Example 47, 4-((1S,4s)-4-((R)-1-(5,7-bis(trifluoromethyl)-1H-benzo[d]imidazol-2-yl)ethyl)cyclohexyl)-6-fluoroquinolme] | 45.6 |
| CCC(c1nc2ncc(Cl)cc2[nH]1)[C@H]1CC[C@@H](c2ccnc3ccc(C(F)(F)F)cc32)CC1 (mixture of isomers) [Example 22, (±)-4-((cis)-4-(1-(6-chloro-1H-imidazo[4,5-b]pyridin-2-yl)propyl)cyclohexyl)-6-(trifluoromethyl)quinoline] | 3.7 |
| CCC(c1nc2ncc(Cl)cc2[nH]1)[C@H]1CC[C@@H](c2ccnc(F)c2C)CC1 (mixture of isomers) [Example 24, (±)-6-chloro-2-(1-((cis)-4-(2-fluoro-3-methylpyridin-4-yl)cyclohexyl)-3-propyl)-1H-imidazo[4,5-b]pyridine] | 7.5 |
| CC(c1nc2ccc(Cl)cc2[nH]1)C1CCC(c2ccnc3ncccc23)CC1 (stereo not shown) [Example 35-1] | 1000 |
| C[C@@H](c1cn2ncccc2n1)[C@H]1CC[C@@H](c2ccnc3ccc(F)cc32)CC1 [Example 31, 6-fluoro-4-((cis)-4-((R)-1-(imidazo[1,2-b]pyridazin-2-yl)ethyl)cyclohexyl)quinoline] | 607 |
| C[C@H]([C@H]1CC[C@@H](c2ccnc3ccc(F)cc32)CC1)n1cnc2ccccc2c1=O [Example 28, 3-((R)-1-((cis)-4-(6-fluoroquinolin-4-yl)cyclohexyl)ethyl)quinazolin-4(3H)-one] | 834 |
| CCC(c1nc2ncc(Cl)cc2[nH]1)[C@H]1CC[C@@H](c2ccnc3ccc(C(F)(F)F)cc32)CC1 (single isomer, unassigned) [Example 22-1, 4-((cis)-4-(1-(6-chloro-1H-imidazo[4,5-b]pyridin-2-yl)propyl)cyclohexyl)-6-(trifluoromethyl)quinoline] | 2.4 |
| C[C@@H](c1nc2ccc(Cl)cc2c(=O)[nH]1)[C@H]1CC[C@@H](c2ccnc3ccc(F)cc32)CC1 [Example 29, 6-chloro-2-((R)-1-((cis)-4-(6-fluoroquinolin-4-yl)cyclohexyl)ethyl)quinazolin-4(3H)-one] | 143 |
| COCC(c1nc2ccc(Cl)cc2[nH]1)[C@H]1CC[C@@H](c2ccnc3ccc(C(F)(F)F)cc32)CC1 (mixture of isomers) [Example 18, (±)-4-((cis)-4-(1-(6-chloro-1H-benzo[d]imidazol-2-yl)-2-methoxyethyl)cyclohexyl)-6-(trifluoromethyl)quinoline] | 12.1 |
| C[C@@H](c1nc2cc(C#N)ccc2[nH]1)[C@H]1CC[C@@H](c2ccnc3ccc(F)cc32)CC1 [Example 49, 2-((R)-1-((1s,4S)-4-(6-fluoroquinolin-4-yl)cyclohexyl)ethyl)-1H-benzo[d]imidazole-5-carbonitrile] | 13.4 |
| C[C@@H](c1nc2c(F)c(F)ccc2[nH]1)[C@H]1CC[C@@H](c2ccnc3ccc(F)cc32)CC1 [Example 41, 4-((1S,4s)-4-((R)-1-(4,5-difluoro-1H-benzo[d]imidazol-2-yl)ethyl)cyclohexyl)-6-fluoroquinoline] | 3.4 |
| C[C@H](c1nc2ccc(Cl)cc2[nH]1)[C@H]1CC[C@@H](c2ccnc(C(F)(F)F)c2)CC1 (single isomer, unassigned) [Example 39-2, 6-chloro-2-(1-(4-(2-(trifluoromethyl)pyridin-4-yl)cyclohexyl)ethyl)-1H-benzo[d]imidazole] | 75.4 |
| C[C@@H](c1nc2cc(F)c(F)cc2[nH]1)[C@H]1CC[C@@H](c2ccnc3ccc(F)cc32)CC1 [Example 40] | 2.7 |
| CCC(c1nc2ncc(Cl)cc2[nH]1)[C@H]1CC[C@H](Oc2ccnc3ccccc23)CC1 (single isomer, unassigned) [Example 20-1] | 6 |
| Fc1ccc2nccc(C3CCC(C(CC(F)(F)F)c4nc5ccc(Cl)cc5[nH]4)CC3)c2c1 (racemic) [Example 33, (±)-Cis and trans-4-(4-(1-(6-chloro-1H-benzo[d]imidazol-2-yl)-3,3,3-trifluoropropyl)cyclohexyl)-6-fluoroquinoline] | 7.5 |
| C[C@@H](c1nc2cc(OC(F)(F)F)ccc2[nH]1)[C@H]1CC[C@@H](c2ccnc3ccc(F)cc32)CC1 [Example 48, 6-fluoro-4-((1S,4s)-4-((R)-1-(5-(trifluoromethoxy)-1H-benzo[d]imidazol-2-yl)ethyl)cyclohexyl) quinoline] | 10.7 |
| C[C@@H](c1nnc2ccccn12)[C@H]1CC[C@@H](c2ccnc3ccc(F)cc32)CC1 [Example 26, 4-((cis)-4-((R)-1-([1,2,4]triazolo[4,3-a]pyridin-3-yl)ethyl)cyclohexyl)-6-fluoroquinoline] | 459 |
| CC[C@H](c1nc2ncc(Cl)cc2[nH]1)[C@H]1CC[C@@H](c2ccnc3ccc(F)cc32)CC1 (single isomer, unassigned) [Example 21-4, 4-(4-(1-(6-chloro-1H-imidazo[4,5-b]pyridin-2-yl)propyl)cyclohexyl)-6-fluoroquinoline] | 89.7 |
| C[C@@H](c1nc2c(F)c(F)c(F)c(F)c2[nH]1)[C@H]1CC[C@@H](c2ccnc3ccc(F)cc32)CC1 [Example 43, 6-fluoro-4-((1S,4s)-4-((R)-1-(4,5,6,7-tetrafluoro-1H-benzo[d]imidazol-2-yl)ethyl)cyclohexyl) quinoline] | 3.5 |
| CCOCC(c1nc2ccc(Cl)cc2[nH]1)[C@H]1CC[C@@H](c2ccnc(F)c2C)CC1 (single isomer, unassigned) [Example 25-1, 6-chloro-2-(2-ethoxy-1-((cis)-4-(2-fluoro-3-methylpyridin-4-yl)cyclohexyl)ethyl)-1H-benzo[d]imidazole] | 10.2 |
| CCC(c1nc2ncc(Cl)cc2[nH]1)[C@H]1CC[C@H](Oc2ccnc3ccccc23)CC1 (mixture of isomers) [Example 20, (±)-4-(((trans)-4-(1-(6-chloro-1H-imidazo[4,5-b]pyridin-2-yl)-3-propyl)cyclohexyl)oxy)quinoline] | 5.8 |
| C[C@@H](c1nc2cc(Cl)c(F)cc2[nH]1)[C@H]1CC[C@@H](c2ccnc3ccc(F)cc32)CC1 [Example 42] | 3.7 |
| C[C@@H](c1nc2cc(C(F)(F)F)ccc2[nH]1)[C@H]1CC[C@@H](c2ccnc3ccc(F)cc32)CC1 [Example 45, 6-fluoro-4-((1S,4s)-4-((R)-1-(5-(trifluoromethyl)-1H-benzo[d]imidazol-2-yl)ethyl)cyclohexyl) quinoline] | 3.1 |
| C[C@H](c1nc2ccc(Cl)cc2[nH]1)[C@H]1CC[C@@H](c2ccnc(C(F)(F)F)c2)CC1 (single isomer, unassigned) [Example 39-3, 6-chloro-2-(1-(4-(2-(trifluoromethyl)pyridin-4-yl)cyclohexyl)ethyl)-1H-benzo[d]imidazole] | 117 |
